Reference: patent US20240199644A1, “Fused Ring Derivatives Useful as KRAS G12D Inhibitors” (JACOBIO PHARMACEUTICALS CO., LTD., priority 2021, published 2024)

Assays:
[1] = biological target: GppNp-loaded HIS-KRAS(G12D, aa 1-169) / cRAF RBD (Homo sapiens (Human), UniProt P01116, G12D); assay: GTP-KRAS and cRAF interaction assay; assay type: biochemical; settings: HTRF; 2.0 nM GppNp-loaded HIS-KRAS(G12D), 35 nM cRAF RBD, 100 μM GTP, 2 hours at 25° C.
Procedure: GppNp-loaded HIS-KRAS(G12D, aa 1-169) was pre-incubated with a compound in the presence of 200 μM GTP in a 384-well plate (Greiner) for 15 min, then cRAF RBD(GST tag, aa 50-132, CreativeBioMart), MAb Anti GST-d2 (Cisbio) and MAb Anti 6HIS-Tb cryptate Gold (Cisbio) were added to the assay wells (Final concentration: 2.0 nM GppNp-loaded HIS-KRAS(G12D), 100 μM GTP, 35 nM cRAF RBD, 1 μg/mL MAb Anti GST-d2, 52.5 ng/mL MAb Anti 6HIS-Tb cryptate Gold) and incubated for 2 hours at 25° C. Wells containing same percent of DMSO served as vehicle control, and wells without KRAS served as low control. HTRF signals were read on Tecan Spark multimode microplate reader and HTRF ratios were calculated under manufacturer's instructions. The percent of activation of compounds treated wells were normalized between vehicle control and low control. Then the data were analyzed using a 4-parameter logistic model to calculate IC50 values.

[2] = biological target: GDP-loaded HIS-KRAS(G12D, aa 1-169) (Homo sapiens (Human), UniProt P01116, G12D); assay: SOS1 catalyzed nucleotide exchange assay; assay type: biochemical; settings: TR-FRET; 1.5 nM GDP-loaded HIS-KRAS(G12D), 0.5 μM SOS1 ExD, 4 hours at 25° C.
Sequence of GDP-loaded HIS-KRAS(G12D, aa 1-169) (P01116 other isoform, or with tags, fused parts or gaps G12D): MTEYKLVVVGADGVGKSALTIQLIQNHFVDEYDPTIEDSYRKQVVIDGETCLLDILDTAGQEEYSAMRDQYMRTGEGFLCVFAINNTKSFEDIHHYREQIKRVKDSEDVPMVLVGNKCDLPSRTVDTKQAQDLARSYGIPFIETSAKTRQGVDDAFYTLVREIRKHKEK
Procedure: GDP-loaded HIS-KRAS(G12D, aa 1-169) was pre-incubated with a compound in the presence of 10 nM GDP in a 384-well plate (Greiner) for 15 min, then purified SOS1 ExD(Flag tag, aa 564-1049), BODIPY™ FL GTP (Invitrogen) and MAb(monoclonal antibody) Anti 6HIS-Tb cryptate Gold (Cisbio) were added to the assay wells (Final concentration: 1.5 nM GDP-loaded HIS-KRAS(G12D), 5 nM GDP, 0.5 μM SOS1 ExD, 80 nM BODIPY™ FL GTP, 52.5 ng/mL MAb Anti 6HIS-Tb cryptate Gold) and incubated for 4 hours at 25° C. Wells containing same percent of DMSO served as vehicle control, and wells without KRAS served as low control. TR-FRET signals were read on Tecan Spark multimode microplate reader. The parameters were F486: Excitation 340 nm, Emission 486 nm, Lag time 100 μs, Integration time 200 μs; F515: Excitation 340 nm, Emission 515 nm, Lag time 100 μs, Integration time 200 μs. TR-FRET ratios for each individual wells were calculated by equation: TR-FRET ratio=(Signal F515/Signal F486)*10000. The percent of activation of compounds treated wells were normalizedbetween vehicle control and low control. Then the data were analyzed using a 4-parameter logistic model to calculate ICso values.

Sequence of GppNp-loaded HIS-KRAS(G12D, aa 1-169) / cRAF RBD (P01116 other isoform, or with tags, fused parts or gaps G12D): as above

Compound | IC50 [1] [nM] | IC50 [2] [nM]
CN(C)CC1(COc2nc3c4c(c(Cl)c(-c5cc(O)cc6ccccc56)cc4n2)OC[C@H]2CNCCN32)CC1 [Compound 2] | 23300 | 880
C#Cc1c(F)ccc2cc(O)cc(-c3nc4c5c(nc(OC[C@@]67CCCN6C[C@H](F)C7)nc5c3F)N3C[C@@H]5CC[C@@H](N5)[C@@H]3CO4)c12 [Compound 8] | 280 | 32.6
C#Cc1c(F)ccc2cc(O)cc(-c3c(Cl)c4c5c(nc(OC[C@@]67CCCN6C[C@H](F)C7)nc5c3F)N3C[C@H]5CC[C@H](N5)[C@H]3CO4)c12 (atropisomer, axis not shown) [Compound 12] | 154 | 35.8
C#Cc1cccc2cc(O)cc(-c3cc4c5c(nc(OCC6(CN7CCOCC7)CC6)nc5c3F)N3C[C@H]5CC[C@H](N5)[C@@H]3CO4)c12 [Compound 4] | 378 | 2.5
C#Cc1c(F)ccc2cc(O)cc(-c3cc4c5c(nc(OCC6(CN7CCOCC7)CC6)nc5c3F)N3C[C@H]5CC[C@H](N5)[C@H]3CO4)c12 [Compound 14] | 9.2 | 1.15
Oc1cc(-c2cc3nc(OC[C@@]45CCCN4C[C@H](F)C5)nc4c3c(c2Cl)OC[C@H]2CNCCN42)c2ccccc2c1 [Compound 3] | 11600 | 294
C#Cc1cccc2cc(O)cc(-c3cc4c5c(nc(OCC6(CN7CCOCC7)CC6)nc5c3F)N3[C@@H]5CN[C@@H](C5)[C@@H]3CO4)c12 [Compound 15] | 251 | 11
CN(C)CC1(COc2nc3c4c(c(Cl)c(-c5cc(O)cc6ccccc56)cc4n2)OC[C@@H]2CNCCN32)CC1 [Compound 1] | 31400 | 3860
C#Cc1c(F)ccc2cc(O)cc(-c3cc4c5c(nc(OC[C@@]67CCCN6C[C@H](F)C7)nc5c3F)N3C[C@H]5CC[C@H](N5)[C@H]3CO4)c12 [Compound 10] | 5.4 | 0.452
C#Cc1c(F)ccc2cc(O)cc(-c3nc4c5c(nc(OC[C@@]67CCCN6C[C@H](F)C7)nc5c3F)N3C[C@@H]5CC[C@@H](N5)[C@H]3CO4)c12 [Compound 9] | 2240 | 81
C#Cc1cccc2cc(O)cc(-c3cc4c5c(nc(OCC6(CN7CCOCC7)CC6)nc5c3F)N3[C@H]5CN[C@H](C5)[C@@H]3CO4)c12 [Compound 16] | 660 | 86.1
C#Cc1cccc2cc(O)cc(-c3cc4nc(OC[C@@]56CCCN5C[C@H](F)C6)nc5c4c(c3Cl)OC[C@@H]3[C@@H]4CC[C@H](CN53)N4)c12 [Compound 11] | 184 | 7.24
C#Cc1c(F)ccc2cc(O)cc(-c3nc4c5c(nc(OC[C@@]67CCCN6C[C@H](F)C7)nc5c3F)N3C[C@H]5CC[C@H](N5)[C@H]3CO4)c12 [Compound 6] | 3.9 | 0.23
C#Cc1c(F)ccc2cc(O)cc(-c3nc4c5c(nc(OCC6(CN7CCOCC7)CC6)nc5c3F)N3C[C@H]5CC[C@H](N5)[C@H]3CO4)c12 [Compound 7] | 9.8 | 0.659
C#Cc1c(F)ccc2cc(O)cc(-c3c(Cl)c4c5c(nc(OC[C@@]67CCCN6C[C@H](F)C7)nc5c3F)N3C[C@H]5CC[C@H](N5)[C@H]3CO4)c12 (atropisomer, axis not shown) [Compound 13] | 4.8 | 0.691
C#Cc1cccc2cc(O)cc(-c3cc4c5c(nc(OCC6(CN7CCOCC7)CC6)nc5c3F)N3C[C@H]5CC[C@H](N5)[C@H]3CO4)c12 [Compound 5] | 20.5 | 1.16
